For this assay, the target named is T1, hiNOS (Homo sapiens, UniProt P35228).
T1 construct: expressed in transfected cells; host or cells: HEK293
The assay can be described thus: DAN assay, hiNOS expressed in transiently transfected HEK293 cells. The class given is cell-based. The settings on record: HEK293 cells transiently transfected with hiNOS. An excerpt:
The source of nitric oxide synthase (NOS) enzyme can be generated in several ways including induction of endogenous iNOS using cytokines and/or lipopolysaccharide (LPS) in various cell types known in the art. Alternatively, the gene encoding the enzyme can be cloned and the enzyme can be generated in cells via heterologous expression from a transient or stable expression plasmid with suitable features for protein expression as are known in the art. Enzymatic activity (nitric oxide production) is calcium independent for iNOS, while the constitutive NOS isoforms, nNOS and eNOS, become active with the addition of various cofactors added to cellular media or extract as are well known in the art. Enzymes specified in Table 1 were expressed in HEK293 cells transiently transfected with the indicated NOS isoform.
A major metabolic pathway for nitric oxide is to nitrate and nitrite, which are stable metabolites within tissue culture, tissue, plasma, and urine (S Moncada, A Higgs, N Eng J Med 329, 2002 (1993)).
The level of nitrate or nitrite in the specimen can be quantified by any method known in the art which provides adequate sensitivity and reproducibility. A variety of protocols have also been described for detecting and quantifying nitrite and nitrate levels in biological fluids by ion chromatography (e.g., S A Everett et al., J. Chromatogr. 706, 437 (1995); J M Monaghan et al., J. Chromatogr. 770, 143 (1997)), high-performance liquid chromatography (e.g., M Kelm et al., Cardiovasc. Res. 41, 765 (1999)), and capillary electrophoresis (M A Friedberg et al., J. Chromatogr. 781, 491 (1997)). For example, 2,3-diaminonaphthalene reacts with the nitrosonium cation that forms spontaneously from NO to form the fluorescent product […]. Using 2,3-diaminonaphthalene (“DAN”), researchers have developed a rapid, quantitative fluorometric assay that can detect from 10 nM to 10 μM nitrite and is compatible with a multi-well microplate format. […] DAN reacts with nitrite ion and gives fluorescent […] (M C Carré et al., Analysis 27, 835-838 (1999)). Table 1 provides the test results of various compounds of the subject invention using the DAN assay.
A specimen can be processed prior to determination of nitrate or nitrite as required by the quantification method, or in order to improve the results, or for the convenience of the investigator. For example, processing can involve centrifuging, filtering, or homogenizing the sample. If the sample is whole blood, the blood can be centrifuged to remove cells and the nitrate or nitrite assay performed on the plasma or serum fraction. If the sample is tissue, the tissue can be dispersed or homogenized by any method known in the art prior to determination of nitrate or nitrite. It may be preferable to remove cells and other debris by centrifugation or another method and to determine the nitrate or nitrite level using only the fluid portion of the sample, or the extracellular fluid fraction of the sample. The sample can also be preserved for later determination, for example by freezing of urine or plasma samples. When appropriate, additives may be introduced into the specimen to preserve or improve its characteristics for use in the nitrate or nitrite assay.
The “level” of nitrate, nitrite, or other NO-related product usually refers to the concentration (in moles per liter, micromoles per liter, or other suitable units) of nitrate or nitrite in the specimen, or in the fluid portion of the specimen. However, other units of measure can also be used to express the level of nitrate or nitrite. For example, an absolute amount (in micrograms, milligrams, nanomoles, moles, or other suitable units) can be used, particularly if the amount refers back to a constant amount (e.g., grams, kilograms, milliliters, liters, or other suitable units) of the specimens under consideration. A number of commercially available kits can be used.

As usually defined, the EC50 is the concentration giving half of the maximal effect. Lower therefore signals a more potent agent. The molecule `CCOC(=O)C1CCC(C(=O)NCCc2ccc3c(c2)OCO3)N1c1nc(-n2ccnc2)ns1` (racemic) [Example 94, 5-(2-Benzo[1,3]dioxol-5-yl-ethylcarbamoyl)-1-(3-imidazol-1-yl-[1,2,4]thiadiazol-5-yl)-pyrrolidine-2-carboxylic acid ethyl ester] came in with an EC50 of less than 1000 nM.
Molecule `Cc1cc(C(C)N2CCC[C@@H]2C(=O)NCc2ccc3c(c2)OCO3)nc(-n2ccnc2)n1` (mixture of isomers) [Example 121, 1-[1-(2-Imidazol-1-yl-6-methyl-pyrimidin-4-yl)-ethyl]-pyrrolidine-2-carboxylic acid (benzo[1,3]dioxol-5-ylmethyl)-amide] gave an EC50 of less than 1000 nM.
Then `Cc1cc(C(C)NCCN(C)Cc2ccc3c(c2)OCO3)nc(-n2ccnc2)n1` (single isomer, unassigned) [Example 130, N-Benzo[1,3]dioxol-5-ylmethyl-N′-[1-(2-imidazol-1-yl-6-methyl-pyrimidin-4-yl)-ethyl]-N-methyl-ethane-1,2-diamine], with less than 1000 nM.
`Cc1cc(C(C)NCCN(C)Cc2ccc3c(c2)OCO3)nc(-n2ccnc2)n1` (single isomer, unassigned) [Example 131, N-Benzo[1,3]dioxol-5-ylmethyl-N-[1-(2-imidazol-1-yl-6-methyl-pyrimidin-4-yl)-ethyl]-N-methyl-ethane-1,2-diamine] came in with an EC50 of less than 1000 nM.
`Cc1cc(C2CCCN2CCNCc2ccc3c(c2)OCO3)nc(-n2ccnc2)n1` (single isomer, unassigned) [Example 132, Benzo[1,3]dioxol-5-ylmethyl-{2-[2-(2-imidazol-1-yl-6-methyl-pyrimidin-4-yl)-pyrrolidin-1-yl]-ethyl}-amine] had an EC50 of less than 1000 nM.
Take `CN(CCCN)c1nc(-n2ccnc2)ns1` [Example 6, N-1-(3-Imidazol-1-yl-[1,2,4]thiadiazol-5-yl)-N-1-methyl-propane-1,3-diamine]: the EC50 is more than 50000 nM.
`CN(CCCNCc1ccc(Cl)cc1)c1nc(-n2ccnc2)ns1` [Example 7, N′-(4-Chloro-benzyl)-N-(3-imidazol-1-yl-[1,2,4]thiadiazol-5-yl)-N-methyl-propane-1,3-diamine] gave an EC50 of less than 50000 nM.
On to `COc1ccc(CNCCCN(C)c2nc(-n3ccnc3)ns2)cc1` [Example 8, N-(3-Imidazol-1-yl-[1,2,4]thiadiazol-5-yl)-N′-(4-methoxy-benzyl)-N-methyl-propane-1,3-diamine], for which the EC50 is less than 1000 nM.
Consider `CN(CCCNCc1ccc(F)c(F)c1)c1nc(-n2ccnc2)ns1` [Example 9, N′-(3,4-Difluro-benzyl)-N-(3-imidazol-1-yl-[1,2,4]thiadiazol-5-yl)-N-methyl-propane-1,3-diamine], for which the EC50 is more than 50000 nM.
As to `CN(CCCNCc1c(Cl)cccc1Cl)c1nc(-n2ccnc2)ns1` [Example 10, N′-(2,6-Dichloro-benzyl)-N-(3-imidazol-1-yl-[1,2,4]thiadiazol-5-yl)-N-methyl-propane-1,3-diamine], the EC50 was more than 50000 nM.
Then `CN(CCCNCc1ccc(C(F)(F)F)cc1)c1nc(-n2ccnc2)ns1` [Example 11, N-(3-Imidazol-1-yl-[1,2,4]thiadiazol-5-yl)-N-methyl-N′-(4-trifluoromethyl-benzyl)-propane-1,3-diamine], with more than 50000 nM; and `Cc1cc(CNC(=O)CNCc2ccc3c(c2)OCO3)nc(-n2ccnc2)n1` [Example 14], with less than 1000 nM; and `CN(CCCNCc1ccc2c(c1)OCCO2)c1nc(-n2ccnc2)ns1` [Example 16, N′-(2,3-Dihydro-benzo[1,4]dioxin-6-ylmethyl)-N-(3-imidazol-1-yl-[1,2,4]thiadiazol-5-yl)-N-methyl-propane-1,3-diamine], with less than 1000 nM.
Consider `COc1ccc(CNCCCN(C)c2nc(-n3ccnc3)ns2)c(OC)c1` [Example 17, N′-(2,4-Dimethoxy-benzyl)-N-(3-imidazol-1-yl-[1,2,4]thiadiazol-5-yl)-N-methyl-propane-1,3-diamine], for which the EC50 was less than 1000 nM.
`CN(CCCNCc1ccc2[nH]ccc2c1)c1nc(-n2ccnc2)ns1` [Example 18, N-(3-Imidazol-1-yl-[1,2,4]thiadiazol-5-yl)-N′-(1H-indol-5-ylmethyl)-N-methyl-propane-1,3-diamine] returned an EC50 of more than 50000 nM.
`CN(CCCNCc1cc2ccccc2n1C)c1nc(-n2ccnc2)ns1` [Example 19, N-(3-Imidazol-1-yl-[1,2,4]thiadiazol-5-yl)-N-methyl-N′-(1-methyl-1H-indol-2-ylmethyl)-propane-1,3-diamine] gave an EC50 of more than 50000 nM.
Then `CN(CCCNCc1cccs1)c1nc(-n2ccnc2)ns1` [Example 20, N-(3-Imidazol-1-yl-[1,2,4]thiadiazol-5-yl)-N-methyl-N′-thiophen-2-ylmethyl-propane-1,3-diamine], with more than 50000 nM; and `CN(CCCNCc1ccncc1)c1nc(-n2ccnc2)ns1` [Example 21, N-(3-Imidazol-1-yl-[1,2,4]thiadiazol-5-yl)-N-methyl-N′-pyridin-4-ylmethyl-propane-1,3-diamine], with more than 50000 nM.
`COc1ccc(CNCCCN(C)c2nc(-n3ccnc3)ns2)cc1OC` [Example 22, N′-(3,4-Dimethoxy-benzyl)-N-(3-imidazol-1-yl-[1,2,4]thiadiazol-5-yl)-N-methyl-propane-1,3-diamine] gave an EC50 of more than 50000 nM.
Molecule `C[C@H](Nc1nc(-n2ccnc2)ns1)C(=O)NCCc1ccc2c(c1)OCO2` [Example 23, (S)—N-(2-Benzo[1,3]dioxol-5-yl-ethyl)-2-(3-imidazol-1-yl-[1,2,4]thiadiazol-5-ylamino)-propionamide] had a concentration giving a half-maximal response (EC50) of less than 1000 nM.
`CC(C)[C@H](Nc1nc(-n2ccnc2)ns1)C(=O)NCCc1ccc2c(c1)OCO2` [Example 24, (S)—N-(2-Benzo[1,3]dioxol-5-yl-ethyl)-2-(3-imidazol-1-yl-[1,2,4]thiadiazol-5-ylamino)-3-methyl-butyramide] came in with an EC50 of less than 1000 nM.
The molecule `O=C(NCCc1ccc2c(c1)OCO2)[C@@H]1CCCN1c1nc(-n2ccnc2)ns1` [Example 25, (S)-1-(3-Imidazol-1-yl-[1,2,4]thiadiazol-5-yl)-pyrrolidine-2-carboxylic acid (2-benzo[1,3]dioxol-5-yl-ethyl)-amide] showed an EC50 of more than 50000 nM.
`O=C(NCCc1ccc2c(c1)OCO2)[C@H]1CCCCN1c1nc(-n2ccnc2)ns1` [Example 26, (R)-1-(3-Imidazol-1-yl-[1,2,4]thiadiazol-5-yl)-piperidine-2-carboxylic acid (2-benzo[1,3]dioxol-5-yl-ethyl)-amide] returned an EC50 of less than 1000 nM.
The molecule `O=C(NCCc1ccc2c(c1)OCO2)[C@@H]1C[C@@H](O)CN1c1nc(-n2ccnc2)ns1` [Example 27, (2S,4R)-4-Hydroxy-1-(3-imidazol-1-yl-[1,2,4]thiadiazol-5-yl)-pyrrolidine-2-carboxylic acid (2-benzo[1,3]dioxol-5-yl-ethyl)amide] registered an EC50 of less than 1000 nM.
With `CN(CC(=O)NCCc1ccc2c(c1)OCO2)c1nc(-n2ccnc2)ns1` [Example 30, N-(2-Benzo[1,3]dioxol-5-yl-ethyl)-2-[(3-imidazol-1-yl-[1,2,4]thiadiamol-5-yl)-methyl-amino]-acetamide], the concentration giving a half-maximal response (EC50) is less than 1000 nM.
In turn, `CCCN(CCCNCc1ccc2c(c1)OCO2)c1nc(-n2ccnc2)ns1` [Example 31, N′-Benzo[1,3]dioxol-5-ylmethyl-N-(3-imidazol-1-yl-[1,2,4]thiadiazol-5-yl)-N-propyl-propane-1,3-diamine] came in with an EC50 of less than 1000 nM.
Molecule `c1cn(-c2nsc(N(CCCNCc3ccc4c(c3)OCO4)C3CC3)n2)cn1` [Example 32, N′-Benzo[1,3]dioxol-5-ylmethyl-N-cyclopropyl-N-(3-imidazol-1-yl-[1,2,4]thiadiazol-5-yl)-propane-1,3-diamine] came in with an EC50 of less than 1000 nM.

The values are drawn from patent US7825256B2, “Inducible nitric oxide synthase dimerization inhibitors” (Kalypsys, Inc., priority 2004, dated 2010).
